Consider one compound from paper PMC1079881, “Differential modulation of microglia superoxide anion and thromboxane B2 generation by the marine manzamines” (BMC Pharmacology, 2005).

Data set [1] has as its system LPS-activated rat neonatal microglia. Kind of data set: OPZ-stimulated TXB2 generation by LPS-activated rat neonatal microglia (immunoassay). The data set is classed as cell-based. As for the experimental part:
(§1) All experiments were performed with adherence to the National Institutes of Health guidelines on the use of experimental animals and with protocols approved by Midwestern University's Research and Animal Care Committee. To isolate rat neonatal microglia, cerebral cortices of 1–2 day-old Sprague-Dawley rats purchased from Harlan (Indianapolis, IN) were surgically removed and placed in cold DMEM + 10% FBS + 120 U/ml P and 12 μg/ml S, the meninges carefully removed, and brain tissue minced and dissociated with trypsin-EDTA at 36°C for 3–5 min. The mixed astroglial cell suspension was plated in either 75- or 162-cm^2 vented cell culture flasks with DMEM medium supplemented with 10% FBS + 120 U/ml P + 12 μg/ml S and grown in a humidified 5% CO2 incubator at 36°C for 12–14 days. […] Microglia were characterized as described earlier.
(§2) To study the effects of manzamines A, B, C, D, E and F on the generation of TXB2 and O2^-, rat neonatal microglia (2 × 10^5 cells/24-well cell culture clusters) were treated to the following protocol. Seventeen hours prior to the experiments, microglia cells were treated with LPS (0.3 ng/ml) in a final volume of 1 ml of DMEM supplemented with 10% FBS + 120 U/ml P + 12 μg/ml. […] O2^-, TXB2 and lactate dehydrogenase (LDH) release were assayed as described below.
(§3) Following the incubation of LPS-activated microglia with HBSS, manzamines or vehicle as explained above, PMA- (1 μM) or OPZ- (0.5 mg/mL)triggered TXB2 generation in the culture supernatants was measured using immunoassays (Cayman Chemical, Ann Arbor, MI) as indicated by the manufacturer's protocol. Results were expressed as pg/mL produced after 70 min of PMA or OPZ stimulation.

Data set [2] shares this test system. Kind of data set: PMA-stimulated TXB2 generation by LPS-activated rat neonatal microglia (immunoassay). Format: cell-based. How it is done: as §1, §2, §3
Details of data set [3]: method as in PMID 10817722. Conditions: cited from earlier work.
The test system of data set [4] is LPS-activated rat neonatal microglia. Kind of data set: OPZ-stimulated O2^- generation by LPS-activated rat neonatal microglia (SOD-inhibitable FCC reduction). The data set is classed as cell-based. As for the experimental part:
as §1, §2
(§4) O2^- generation was determined by the SOD-inhibitable reduction of FCC [23]. […] All experimental treatments were run in triplicate and in a final volume of 1 ml. Changes in FCC absorbance were measured at 550 nm using a Beckman DU-650 spectrophotometer.

Data set [5] has the same test system. As to the kind of experiment: PMA-stimulated O2^- generation by LPS-activated rat neonatal microglia (SOD-inhibitable FCC reduction). Format: cell-based. Conditions: Rattus norvegicus, Microglia. How it is done: as §1, §2, §4
Data set [6] has as its target hypoxanthine-xanthine oxidase system (Homo sapiens, UniProt P47989). Kind of data set: Cell-free O2^- generation by hypoxanthine-xanthine oxidase system (scavenging test). Format: biochemical. The settings on record: control (DMSO) 12 ± 1.1, test concentration not given. How it is done:
A standard hypoxanthine-xanthine oxidase system was used as a cell-free source of O2^-. O2^- was generated by incubation of purified xanthine oxidase (0.02 Units/ml) with hypoxanthine (1.5 mM) at 37°C [21]. O2^- formation was assessed spectrophotometrically as the increase in absorbance at 550 nm associated with the SOD (30 U/mL)-inhibitable reduction FCC (50 μM) as described above for rat microglia O2^- generation and expressed in nmoles/30 minutes.

Where [7] appears, read: Rattus norvegicus, Microglia, OPZ 0.5 mg/mL, 70 min, LPS 0.3 ng/mL 17 h.

SMILES strings stand for the structures. Where only a bound is given, the exact number is not on record here.

Sequence of hypoxanthine-xanthine oxidase system (P47989 whole entry): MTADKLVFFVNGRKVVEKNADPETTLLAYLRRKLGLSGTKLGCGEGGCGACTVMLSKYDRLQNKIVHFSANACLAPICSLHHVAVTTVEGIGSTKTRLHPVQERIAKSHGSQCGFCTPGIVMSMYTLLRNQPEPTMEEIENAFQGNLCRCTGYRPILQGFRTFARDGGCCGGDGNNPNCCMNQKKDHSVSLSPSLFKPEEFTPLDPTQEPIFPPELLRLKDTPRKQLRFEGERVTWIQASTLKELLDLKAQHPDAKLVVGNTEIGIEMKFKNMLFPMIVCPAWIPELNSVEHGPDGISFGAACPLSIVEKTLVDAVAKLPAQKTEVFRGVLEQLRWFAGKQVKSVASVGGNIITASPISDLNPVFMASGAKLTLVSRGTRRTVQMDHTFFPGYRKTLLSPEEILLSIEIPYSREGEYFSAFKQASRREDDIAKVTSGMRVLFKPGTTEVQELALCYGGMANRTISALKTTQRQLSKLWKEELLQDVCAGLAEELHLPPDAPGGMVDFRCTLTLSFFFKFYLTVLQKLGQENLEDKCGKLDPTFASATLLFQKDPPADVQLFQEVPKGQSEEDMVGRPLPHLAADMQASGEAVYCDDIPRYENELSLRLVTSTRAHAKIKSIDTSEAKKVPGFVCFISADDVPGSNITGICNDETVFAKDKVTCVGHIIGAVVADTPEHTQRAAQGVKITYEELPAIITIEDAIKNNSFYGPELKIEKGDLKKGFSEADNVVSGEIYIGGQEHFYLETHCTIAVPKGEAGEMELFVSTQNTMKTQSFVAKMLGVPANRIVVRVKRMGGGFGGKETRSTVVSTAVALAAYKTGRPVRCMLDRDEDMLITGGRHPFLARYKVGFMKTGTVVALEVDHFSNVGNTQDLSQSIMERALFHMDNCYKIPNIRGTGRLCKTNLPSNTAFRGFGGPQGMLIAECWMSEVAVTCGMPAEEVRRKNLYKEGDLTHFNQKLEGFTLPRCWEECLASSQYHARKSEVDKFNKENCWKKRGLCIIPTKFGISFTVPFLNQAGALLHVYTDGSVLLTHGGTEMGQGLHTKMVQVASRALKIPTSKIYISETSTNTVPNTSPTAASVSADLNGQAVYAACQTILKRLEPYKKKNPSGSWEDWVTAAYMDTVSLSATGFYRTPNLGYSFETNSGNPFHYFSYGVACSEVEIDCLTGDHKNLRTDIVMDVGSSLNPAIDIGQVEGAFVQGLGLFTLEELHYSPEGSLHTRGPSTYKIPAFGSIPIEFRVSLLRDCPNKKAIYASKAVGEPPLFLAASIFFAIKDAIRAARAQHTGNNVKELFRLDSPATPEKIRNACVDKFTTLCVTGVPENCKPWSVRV

For orientation: IC50 means the concentration needed to halve the response being measured. Lower therefore signals greater potency in that assay. `O[C@]12C=C(c3nccc4c3[nH]c3ccccc34)[C@@H]3CCN(CCCC/C=C\CC1)C[C@@]31C[C@@H]3/C=C\CCCCN3[C@H]12` [MZA, manzamine A]: the IC50 is 3160 nM in data set [1] (setting [7]); < 16 nM in data set [2] (Rattus norvegicus, Microglia, PMA 1 μM, 70 min, LPS 0.3 ng/mL 17 h, manzamine added 15 min before); > 10000 nM in data set [4] (setting [7]); 100 nM in data set [5] (PMA 1 μM, 70 min, LPS 0.3 ng/mL 17 h). The inhibition at 10 µM came to 58% in data set [1] (Rattus norvegicus, Microglia, at 10 μM); 95.5% in data set [2] (Rattus norvegicus, Microglia, at 10 μM, read-out: maximum inhibition of PMA-stimulated TXB2 generation); 55.9 ± 6.1% in data set [5] (at 10 μM). In addition, the “OPZ-stimulated TXB2 released” value in data set [1] (at 10 μM) is reported as 1,927 ± 474 pg of TXB2 per 200,000 microglia per 70 min. For the same compound, the “PMA-stimulated TXB2 released” value in data set [2] (at 10 μM) was 78.3 ± 45 pg of TXB2 per 200,000 microglia per 70 min. Further, the “in vivo toxicity” value in data set [3] is on record as “lack of significant in vivo toxicity”. In addition, in data set [4] (at 10 μM), the “OPZ-stimulated O2^- released” value is reported as 9.5 ± 1 O2^- nmol per 200,000 microglia per 70 min. Moreover, the “effect on OPZ-stimulated O2^- generation” value in data set [4] (even at 10 μM) is reported as “did not appear to affect”. In addition, the “O2^- generated by hypoxanthine-xanthine oxidase system” value in data set [6] is given as 15.3 ± 4.4 nmoles/30 min.
